According to patent US20080199464A1, “Combination Therapy with Angiogenesis Inhibitors” (Genentech, Inc., priority 2007, published 2008):

How the values were obtained:
[1] = system: 786-O renal cell carcinoma (RCC) xenografts; test: Growth inhibition of established 786-O renal cell carcinoma xenografts; type: in vivo, athymic nude mice; details: high sunitinib dose 50 mg/kg daily, alone or with B20-4.1
Protocol: (§1) Volume was calculated using the formula:
(§2) Tumor Volume(mm^3)=(W2×l)/2
(§3) Tumors were measured twice weekly using calipers. […] Treatment outcome was based on tumor growth inhibition (TGI).
(§4) Animals were monitored for regression responses.

[2] = system: H1299 human non-small cell lung carcinoma (NSCLC) xenografts; test: Growth inhibition of established H1299 human NSCLC xenografts; type: in vivo, athymic nude mice; details: Day 19, longer term study, alone or with B20-4.1
Protocol: as §1, §2, §3, §4

[3] = system: Caki-2 human renal cell carcinoma xenografts; test: Growth inhibition of established Caki-2 renal cell carcinoma xenografts; type: in vivo, SCID mice
Protocol: as §1, §2, §3, §4

[4] = system: LS174T human colon carcinoma xenografts; test: Growth inhibition of established LS174T human colon carcinoma xenografts; type: in vivo, athymic nude mice; details: Day 18 of separate 25-day study; high sunitinib dose 50 mg/kg daily, alone or with B20-4.1
Protocol: as §1, §2, §3, §4

## CCN(CC)CCNC(=O)c1c(C)[nH]c(/C=C2\C(=O)Nc3ccc(F)cc32)c1C [sunitinib, N-[2-(diethylamino)ethyl]-5-[(Z)-(5-fluoro-1,2-dihydro-2-oxo-3H-indol-3-ylidine)methyl]-2,4-dimethyl-1H-pyrrole-3-carboxamde]
[1]
  TGI (tumor growth inhibition): 80%
[2]; sunitinib 25 mg/kg daily
  TGI (tumor growth inhibition): 32%
[2]; sunitinib 50 mg/kg daily
  TGI (tumor growth inhibition): 62%
[3]; Day 29, high dose (50 mg/kg) sunitinib, alone or with B20-4.1
  TGI (tumor growth inhibition): 62%
[3]; low dose (25 mg/kg) sunitinib monotherapy
  Day 29 mean tumor volumes (MTVs): 352 mm^3
[4]
  TGI (tumor growth inhibition): 43%
